The text below walks through data of article PMC9268243, “Metabolic Behaviors of Aconitum Alkaloids in Different Concentrations of Aconiti Lateralis Radix Praeparata and Effects of Aconitine in Healthy Human and Long QT Syndrome Cardiomyocytes” (Molecules, 2022).

Where two headings read alike, the source gives them in different places.

Series [1] is described as follows: Pharmacokinetic study of six aconitum alkaloids in rat plasma after oral Fu Zi extracts (UPLC-MS/MS). As to conditions: SD rat plasma, mean ± SD, n = 8; for Cmax / Tmax / AUC(0-t) / CL/F / Vd/F / half-life: both sexes, Sprague Dawley, in vivo; for AUC(0-t): read-out: AUC(0–48h); for CL/F: read-out: CLz/F (converted); for Vd/F: read-out: Vz/F; for half-life: read-out: t1/2z (converted). The class given is in vivo, Sprague Dawley rats. On the procedure:
Fu Zi (200 g) was taken and broken by a pulverizer to the size of 0.5–1.0 cm. The broken Fu Zi was soaked in 1.6 L distilled water and boiled for 0.5 h. The filtrate was collected and the previous step was repeated for the filtered residue. The mixed filtrates were precipitated with 60% ethanol, and then centrifuged (2000× g, 10 min). The supernatant was decompressed and concentrated to a final density of 2.0 g/mL by the amount of the crude drugs. The final concentration of ethanol in Fu Zi extracts before administration was below 0.5%. The extract was subsequently kept at −20 °C for oral administration to rats.
All samples were analyzed on UPLC® I-Class and Xevo® TQS mass spectrometry combined system. Separations by a Waters ACQUITY UPLC® HSS T3(2.1 mm × 100 mm, 1.8 μm) column were conducted with a mobile phase of water (A) and acetonitrile (B), both containing 0.1% formic acid, at the flow rate of 0.3 mL·min^−1.The run time was 5.0 min and the gradient elution program was adopted as follows: 0–0.3 min, 10% B; 0.3–1 min, 10–50% B; 1–2.5 min, 50–90% B; 2.5–3 min, 90% B; 3–5 min, 10% B. The temperature of the column and samples were set at 45 °C and 10 °C, respectively. The volume of injection was 2 μL.
The detection was quantified by a triple quadrupole mass spectrometer that was set as multiple reactive monitoring (MRM) in the electrospray positive ionization mode (ESI+). The correlative parameters were as follows: capillary voltage: 3 kV; desolvation gas flow: 800 L·h^−1; cone gas flow: 150 L·h^−1; source temperature: 150 °C; desolvation temperature: 500 °C.
The method of […] was utilized. An amount of 100 μL of plasma samples from rats after oral administration of Fu Zi extracts was precipitated with 300 μL of 50% acetonitrile plus 50% methanol, vortexed for 1.0 min and centrifuged at a speed of 12,000× g at 4 °C for 10 min. The supernatant was transferred to another 1.5 mL centrifuge tube, dried with a stream of nitrogen at 40 °C, redissolved in 50 μL methanol and centrifuged at 12,000× g for 10 min. Then, the supernatant was pipetted out into the autosampler vials and analyzed by UPLC-MS/MS system.
24 Sprague Dawley rats (half male and female, weight 180–220 g) were purchased from Beijing Weitong Lihua Biotechnology Co.Ltd. (Beijing, China). The license number of experimental animal production was SCXK (Jing) 2016–0006. The animals were maintained under a standard laboratory condition (humidity: 40–70%, room temperature: 20–26 °C, […], 12 h dark-light cycle) and fed separately. All animal experiments were conducted according to the Guide for the Care and Use of Laboratory Animals (National Research Council of the USA, 1996) and approved by the Institutional Animal Care and Use Committee (IACUC-DWZX-2020-776). After 5 days of acclimation, the rats were fasted for 12 h but provided with water freely before the experiments. The rats were randomly divided into 3 groups: high (2.0 g/kg), middle (1.0 g/kg), and low (0.5 g/kg) dose groups. The Fu Zi extracts was administered to each rat intragastrically. An equivalent of 0.20 mL blood samples were collected from the fossa orbitalis vein into 1.5 mL heparinized centrifuge tubes at the designated time points after dosing: 0.08, 0.25, 0.5, 1, 2, 4, 8, 12, 24, and 48 h. The plasma samples were pipetted out into another 1.5 mL centrifuge tubes after being centrifuged at 5000× g for 10 min and then stored at −20 °C until further analysis.
The data were acquired by […] from Waters (UNIFI). Microsoft Office Excel and the SPSS software (Version 13.0) was used for data analysis. The data below the LLOQ were regarded as zero in summary statistics. The pharmacokinetic parameters were calculated by DAS pharmacokinetic program (Version 2.0) and all analyzed by non-compartmental method. […] All data were presented as mean ± SD. […]

Series [2] deals with CYP3A4. To be noted: in vivo; cited from earlier work.

For `COC[C@@]12CC[C@H](OC)[C@]34C(C([C@H](OC)[C@H]13)[C@]1(OC(C)=O)[C@H]3[C@@H](OC(=O)c5ccccc5)[C@](O)(C[C@H]34)[C@@H](OC)[C@@H]1O)N(C)C2` [HA, hypaconitine], in series [1] (oral Fu Zi extracts 1.0 g/kg), the t1/2z was found to be 8.72 ± 3.40 h, the Cmax stood at 9.22 ± 1.78 ng/mL, the Tmax turned out to be 3.88 ± 2.03 h and the AUC(0-t) turned out to be 115 ± 25 ng·h/mL. For the same molecule, in series [1] (oral Fu Zi extracts 1.0 g/kg), the CL/F was 59.5 mL/min/kg and the Vd/F is 45.3 ± 26.3 L/kg. Further, in series [1] (oral Fu Zi extracts 0.5 g/kg), the peak level (Cmax) was 6.37 ± 1.96 ng/mL, the Tmax turned out to be 2.14 ± 0.9 h, the AUC(0-t) is 62.9 ± 26.9 ng·h/mL and the CL/F is 67 mL/min/kg. In addition, in series [1] (oral Fu Zi extracts 0.5 g/kg), the Vd/F stood at 12.8 ± 6.88 L/kg and the half-life was 1.83 ± 0.64 h. For the same molecule, in series [1] (oral Fu Zi extracts 2.0 g/kg), the Cmax is 12.5 ± 4.42 ng/mL, the Tmax was determined as 1.6 ± 1.47 h, the AUC(0-t) was 186 ± 64.7 ng·h/mL and the CL/F was 79.7 mL/min/kg. Besides, in series [1] (oral Fu Zi extracts 2.0 g/kg), the Vd/F turned out to be 80.4 ± 35.5 L/kg and the half-life was 11.9 ± 4.59 h. The “main CYP 450 subtype for alkaloid metabolism” value in series [2] is recorded as “CYP3A4”.
On to `CCN1CC2(COC)C(O)CC(OC)C34C5CC6(O)C(OC)C(O)C(O)(C5C6OC(=O)c5ccccc5)C(C(OC)C23)C14` (stereo not shown) [BAC, benzoylaconine], for which, in series [1] (oral Fu Zi extracts 0.5 g/kg), the Cmax was found to be 1.52 ± 0.71 ng/mL, the Tmax came out at 3.72 ± 3.6 h, the AUC(0-t) was 16.2 ± 5.43 ng·h/mL and the CL/F is 460 mL/min/kg. Also, in series [1] (oral Fu Zi extracts 0.5 g/kg), the Vd/F was determined as 194 ± 117 L/kg and the half-life is 4.48 ± 0.64 h. Also, in series [1] (oral Fu Zi extracts 1.0 g/kg), the maximum concentration (Cmax) stood at 3.24 ± 2.01 ng/mL, the Tmax was 5.71 ± 5.07 h, the AUC(0-t) turned out to be 38.5 ± 15.4 ng·h/mL and the CL/F is 271 mL/min/kg. Further, in series [1] (oral Fu Zi extracts 1.0 g/kg), the Vd/F worked out at 152 ± 97.1 L/kg and the half-life was 5.91 ± 3.79 h. In addition, in series [1] (oral Fu Zi extracts 2.0 g/kg), the Cmax was 5.91 ± 2.25 ng/mL, the Tmax is 0.34 ± 0.2 h, the AUC(0-t) is 50.5 ± 19.4 ng·h/mL and the CL/F was 583 mL/min/kg. In addition, in series [1] (oral Fu Zi extracts 2.0 g/kg), the Vd/F came to 801 ± 396 L/kg and the half-life was 13.7 ± 4.26 h.
